Entries after “also recorded” stand apart in the source; their conditions may differ.
Legend:
Assay type in all cases: biochemical
Human recombinant 5-LO [1] = biological target: T1, Human recombinant 5-LO (Homo sapiens, UniProt P09917); experiment: Redox fluorescence assay (remaining 13(S)-HpODE by H2DCFDA fluorescence after pseudo-peroxidase reaction)
T1 construct: purchased Cayman Chemical
T1 sequence (P09917 1-674): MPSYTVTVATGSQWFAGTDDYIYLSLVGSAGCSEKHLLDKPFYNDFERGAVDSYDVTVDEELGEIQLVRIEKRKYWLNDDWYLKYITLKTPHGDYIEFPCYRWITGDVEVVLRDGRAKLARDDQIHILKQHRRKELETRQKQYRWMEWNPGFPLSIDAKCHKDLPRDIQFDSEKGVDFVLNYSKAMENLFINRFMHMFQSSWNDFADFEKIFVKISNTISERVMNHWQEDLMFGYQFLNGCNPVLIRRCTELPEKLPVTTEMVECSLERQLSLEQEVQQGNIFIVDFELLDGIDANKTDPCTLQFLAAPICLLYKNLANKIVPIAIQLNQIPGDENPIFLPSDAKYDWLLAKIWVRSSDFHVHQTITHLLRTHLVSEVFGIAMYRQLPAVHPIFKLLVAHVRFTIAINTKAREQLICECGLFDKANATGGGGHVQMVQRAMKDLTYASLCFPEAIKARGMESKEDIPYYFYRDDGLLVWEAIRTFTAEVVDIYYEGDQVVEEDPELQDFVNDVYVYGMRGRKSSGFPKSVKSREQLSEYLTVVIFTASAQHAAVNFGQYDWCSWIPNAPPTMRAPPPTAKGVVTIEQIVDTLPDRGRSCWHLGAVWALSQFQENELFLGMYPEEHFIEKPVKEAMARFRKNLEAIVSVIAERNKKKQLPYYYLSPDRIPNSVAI
Source text: (§1) Lipid peroxide is consumed when 5-LO is activated to the ferric iron form. The enzyme remains activated during the dioxygenation reaction cycle. If a redox inhibitor is present, it reduces the catalytic iron into the ferrous form and inhibits the enzyme reaction. Another lipid peroxide must be consumed to re-activate 5-LO to the ferric form. As a result, reductions in the amount of lipid peroxide in the reaction mixture signify redox activity. […] The absorbance-based method measures the amount of peroxide by its absorbance at 234 nm, and the fluorescence-based method measures it by analyzing its reaction with H2DCFDA.
H2DCF-DA (60 µM) was pre-cleaved by 5-LO crude lysate in the reaction buffer (50 mM Tris, pH 7.5, 2 mM ethylenediaminetetraacetic acid [EDTA], 2 mM CaCl2, and 10 µM adenosine triphosphate [ATP]) for more than 10 minutes before the main reaction, as previously reported. In a 384-well plate, 10 µl of 450 mU/µl enzyme solution was distributed and mixed with 10 µl of inhibitor solution with various concentrations. 13(S)-HpODE (10 µM; 20 µl) was added to each well to start the reaction. After 3 minutes, pre-cleaved H2DCF-DA dye (20 µl) was added and incubated for more than 10 minutes. The fluorescence signal was measured using a fluorometer at excitation and emission wavelengths of 485 and 530 nm, respectively. All steps were carried out at room temperature.
The highest and lowest compound concentrations in the serially diluted set were 100 µM and 1.69 nM, respectively. […] The final DMSO amount in the reaction mixture was kept at 1% throughout the experiments. […] Four wells without any inhibitors represented the “100% peroxide” control wells, and the average fluorescence values in the control wells were used for normalization of fluorescence data. The concentration points were duplicated in each test and the concentration-dependent fluorescence data were fitted with three-parameter logistic regression in Prism using the top and bottom constraints of 100 and 0, respectively.

Human recombinant 5-LO [2] = biological target: T1, Human recombinant 5-LO; experiment: Redox absorbance assay (13(S)-HpODE absorbance at 234 nm, pseudo-peroxidase activity); conditions: for Redox absorbance, Δabs: absorbance at 234 nm, change over 180 seconds, average ± SD of triplicate
Source text: as §1
The redox absorbance assay was carried out as described by Zweifel, et al.. Specifically, 10 µl of 1 mM inhibitor solution was mixed with 490 µl of 20 µM 13-HpODE solution. After 3 minutes of incubation at room temperature, the solution was transferred to a cuvette. The reaction started when 500 µl of the 20 unit/ml enzyme solution was added to the peroxide-inhibitor mixture in the cuvette. The absorbance of 13(S)-HpODE at 234 nm was measured immediately after mixing, using a SpectraMax M5 spectrophotometer. Data points were collected for 3 minutes. The reaction buffer consisted of 50 mM potassium phosphate buffer (pH 7.6), 0.1 mM EDTA, 100 µM ATP, and 0.3 mM CaCl2.
The accuracy and efficacy of the redox absorbance assay were determined by testing the selected compounds. The absorbance of 13(S)-HpODE was measured at 234 nm, and the values were recorded every second for 3 minutes.
In theory, because the extinction coefficient of 13(S)-HpODE at 234 nm is 23,000 M^−1 cm^−1, 10 µM 13(S)-HpODE contributes a maximum of 0.23 in absorbance.

Human recombinant 5-LO [3] = biological target: T1, Human recombinant 5-LO; experiment: as above
[4] = 10 µM inhibitor, 234 nm, 3 min kinetic curve, Figure 2

| SMILES | EC50 (Human recombinant 5-LO [1]) [µM] | Redox absorbance, Δabs (Human recombinant 5-LO [2]; 10 µM inhibitor) | absorbance pattern over time (redox / non-redox pattern) (Human recombinant 5-LO [2]; [4]) | redox activity in absorbance assay carried out in the fluorescence assay buffer (Human recombinant 5-LO [3]; buffer of the redox fluorescence assay, Figure 4-C) | redox activity less than that of the stronger redox inhibitors (Human recombinant 5-LO [1]; fluorescence assay, relative to stronger redox inhibitors) [%] | reduction in absorbance (Human recombinant 5-LO [2]; [4]) | share of the decrease in absorbance in the first 20 seconds (Human recombinant 5-LO [2]; first 20 seconds of the reaction, Figure 2) | absorbance pattern in substrate-depleted conditions (Human recombinant 5-LO [3]; 80 minutes after the start of the reaction, 234 nm, Figure 4) |
| --- | --- | --- | --- | --- | --- | --- | --- | --- |
| COc1ccc(/C=C2\SC(c3ccc(Cl)cc3)=NC2=O)cc1 [CAY10649, (Z)-2-(4-chlorophenyl)-5-(4-methoxybenzylidene)thiazol-4(5H)-one] | > 100 | 0.014±0.011 |  |  |  |  |  |  |
| N#CC(=Cc1ccc(O)c(O)c1)C(=O)OCC=Cc1ccccc1 [CDC, cinnamyl 3,4-dihydroxy-alpha-cyanocinnamate] | 0.13 ± 0.17 | 0.015±0.005 | perfect non-redox pattern; also recorded: increases in the absorbance assay | redox activity was not detected |  |  |  |  |
| O=C(O)C=Cc1ccc(O)c(O)c1 [Caffeic acid, 3,4-dihydroxy cinnamic acid] |  | 0.005±0.003 | no changes in absorbance over time |  | 60 |  |  |  |
| CC(Cc1ccc(O)c(O)c1)C(C)Cc1ccc(O)c(O)c1 (centres unmarked) [NDGA, 4,4′-(2,3-dimethyl-1,4-butanediyl)bis-1,2-benzenediol] |  | 0.009±0.007 | increases in the absorbance assay |  |  |  |  |  |
| Cn1nccc1-c1ccc(Sc2cccc(C3(C(N)=O)CCOCC3)c2)cc1 [PF4191834] | > 100 | 0.015±0.005 |  |  |  |  |  |  |
| CCCCCCC(Sc1nc(Cl)cc(Nc2cccc(C)c2C)n1)C(=O)O (centres unmarked) [YS121, 2-[[4-chloro-6-[(2,3-dimethylphenyl)amino]-2-pyrimidinyl]thio]-octanoic acid] | 77.2 ± 35.1 | 0.008±0.005 |  |  |  |  |  |  |
| CC(c1cc2ccccc2s1)N(O)C(N)=O (centres unmarked) [Zileuton, N-[1-benzo(b)thien-2-ylethyl]-N-hydroxy-urea] |  | −0.025±0.018 | clear redox pattern |  |  | 0.042 | about 50% | increased slowly over time |
